Measurements taken from patent publication US20240270762A1, “PENICILLIN-BINDING PROTEIN INHIBITORS” (priority 2021, published 2024).
Converted amounts (≈) assume the structure as drawn.

Experiments:
[1] = target: T1, PBP3 from Pseudomonas aeruginosa (PAO1) (Pseudomonas aeruginosa, UniProt G3XD46); experiment: Bocillin-FL fluorescence polarization competition binding, P. aeruginosa PBP3; settings: Binding affinity to P. aeruginosa PBP3; fluorescence polarization competition binding assay using Bocillin-FL; read-out: P. aeruginosa PBP3 Potency
T1 construct: made in house
T1 sequence (G3XD46 whole entry): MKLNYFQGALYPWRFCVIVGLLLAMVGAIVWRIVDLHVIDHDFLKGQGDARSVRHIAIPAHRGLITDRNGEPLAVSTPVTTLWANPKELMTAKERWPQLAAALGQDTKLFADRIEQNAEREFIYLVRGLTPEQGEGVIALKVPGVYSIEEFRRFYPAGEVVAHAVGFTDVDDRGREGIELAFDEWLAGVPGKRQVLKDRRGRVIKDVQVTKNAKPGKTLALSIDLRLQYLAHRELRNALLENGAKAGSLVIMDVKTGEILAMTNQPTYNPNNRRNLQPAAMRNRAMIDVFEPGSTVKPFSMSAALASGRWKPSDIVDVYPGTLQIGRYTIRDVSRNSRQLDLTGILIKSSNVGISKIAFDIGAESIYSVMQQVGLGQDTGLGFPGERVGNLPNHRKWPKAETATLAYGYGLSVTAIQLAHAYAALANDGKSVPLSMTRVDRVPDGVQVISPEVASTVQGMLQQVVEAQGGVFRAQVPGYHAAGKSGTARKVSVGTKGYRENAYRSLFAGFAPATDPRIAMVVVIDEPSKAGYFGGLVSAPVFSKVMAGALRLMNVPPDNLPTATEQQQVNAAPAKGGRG
In short: (§1)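 Purified PBPs pre-incubated with inhibitor (E. coli PBP3 1.5 μM, 30 min; P. aeruginosa PBP3 0.75 μM, A. baumannii PBP1a 1 μM and PBP3 0.2 μM, 15 min), then Bocillin-FL 0.1 μM (0.05 μM for PBP1a) added; FP read up to 60 min. EC50 = concentration halving bound Bocillin-FL.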

[2] = test system: E. coli AG100; experiment: microbe, parasite or virus in culture; type: cell-based; settings: Escherichia coli, AG100, read-out: MIC E. coli AG100
[3] = test system: N. gonorrhoeae WHO Z; experiment: Liquid broth MIC in Fastidious broth; settings: Neisseria gonorrhoeae, read-out: Minimum Inhibitory Concentration (MIC), N. gonorrhoeae WHO Z
[4] = target: T2, PBP3 from Escherichia coli (K-12) (Escherichia coli, UniProt P0AD68); experiment: Bocillin-FL fluorescence polarization competition binding, E. coli PBP3
T2 construct: made in house
T2 sequence (P0AD68 1-577): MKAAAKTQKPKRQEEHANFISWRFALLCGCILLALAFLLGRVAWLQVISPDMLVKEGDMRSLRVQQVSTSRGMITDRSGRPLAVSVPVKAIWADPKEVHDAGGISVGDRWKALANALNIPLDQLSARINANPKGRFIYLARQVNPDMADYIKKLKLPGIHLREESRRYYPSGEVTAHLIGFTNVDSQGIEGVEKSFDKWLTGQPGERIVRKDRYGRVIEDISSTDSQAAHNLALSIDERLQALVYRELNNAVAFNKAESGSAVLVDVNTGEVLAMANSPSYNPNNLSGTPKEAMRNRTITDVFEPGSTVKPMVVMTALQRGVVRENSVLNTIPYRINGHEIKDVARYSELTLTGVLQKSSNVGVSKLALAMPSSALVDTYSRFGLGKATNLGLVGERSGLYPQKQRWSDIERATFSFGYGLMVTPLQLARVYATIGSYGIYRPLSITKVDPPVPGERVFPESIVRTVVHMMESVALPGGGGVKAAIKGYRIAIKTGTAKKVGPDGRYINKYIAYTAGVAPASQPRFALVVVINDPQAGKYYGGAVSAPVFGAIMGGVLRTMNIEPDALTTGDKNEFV
In short: as §1

[5] = test system: N. gonorrhoeae WHO M; experiment: Liquid broth MIC in Fastidious broth; settings: Neisseria gonorrhoeae, read-out: Minimum Inhibitory Concentration (MIC), N. gonorrhoeae WHO M
[6] = test system: N. gonorrhoeae FA1090; experiment: Liquid broth MIC in Fastidious broth; settings: Neisseria gonorrhoeae, FA1090, read-out: Minimum Inhibitory Concentration (MIC), N. gonorrhoeae FA 1090
[7] = test system: P. aeruginosa ATCC 27853; experiment: microbe, parasite or virus in culture; type: cell-based; settings: Pseudomonas aeruginosa, ATCC27853, read-out: MIC P. aeruginosa ATCC 27853
[8] = test system: N. gonorrhoeae MS11; experiment: Liquid broth MIC in Fastidious broth; settings: Neisseria gonorrhoeae, MS11, read-out: Minimum Inhibitory Concentration (MIC), N. gonorrhoeae MS11
[9] = test system: K. pneumoniae 848844; experiment: microbe, parasite or virus in culture; type: cell-based; settings: Klebsiella pneumoniae, 848844, read-out: MIC K. pneumoniae 848844
[10] = test system: N. gonorrhoeae ATCC 49226; experiment: Liquid broth MIC in Fastidious broth; settings: Neisseria gonorrhoeae, ATCC49226, read-out: Minimum Inhibitory Concentration (MIC), N. gonorrhoeae ATCC 49226
[11] = test system: K. pneumoniae UMM; experiment: microbe, parasite or virus in culture; type: cell-based; settings: Klebsiella pneumoniae, read-out: MIC K. pneumoniae UMM
[12] = test system: E. coli D22; experiment: microbe, parasite or virus in culture; type: cell-based; settings: Escherichia coli, D22, read-out: MIC E. coli D22
[13] = test system: E. coli AG100A; experiment: Broth microdilution MIC in CAMHB; type: cell-based; settings: Escherichia coli, read-out: MIC E. coli AG100A

| Structure (SMILES) | IC50 [1] [µM] | MIC [2] [µg/mL] | MIC [3] [µg/mL] | EC50 [4] [µM] | MIC [5] [µg/mL] | MIC [6] [µg/mL] | MIC [7] [µg/mL] | MIC [8] [µg/mL] | MIC [9] [µg/mL] | MIC [10] [µg/mL] | MIC [11] [µg/mL] | MIC [12] [µg/mL] | MIC [13] [µg/mL] |
| --- | --- | --- | --- | --- | --- | --- | --- | --- | --- | --- | --- | --- | --- |
| O=C(N[C@H](C(=O)N[C@H]1Cc2cccc(C(=O)O)c2OB1O)c1ccc(P(=O)(O)O)cc1)c1ccc(C(F)(F)F)cn1 (single isomer, unassigned) [Example 192] | < 10 | > 128 | 1 to 2 (≈ 1.69 to 3.37 µM) | 10 to 50 | < 1 | < 1 | > 128 | 1 to 2 (≈ 1.69 to 3.37 µM) | > 128 | 1 to 2 (≈ 1.69 to 3.37 µM) | > 128 | 8 to 16 (≈ 13.5 to 27 µM) | 32 to 64 (≈ 53.9 to 108 µM) |
| CC(=O)NC(C(=O)N[C@H]1Cc2cccc(C(=O)O)c2OB1O)c1ccc(P(=O)(O)O)cc1 (stereo partly drawn) [Example 26, (3R)-3-(2-acetamido-2-(4-phosphonophenyl)acetamido)-2-hydroxy-3,4-dihydro-2H-benzo[e][1,2]oxaborinine-8-carboxylic acid] | 50 to 250 | > 128 | 16 to 32 (≈ 34.6 to 69.2 µM) | 50 to 250 | 4 to 8 (≈ 8.66 to 17.3 µM) | 16 to 32 (≈ 34.6 to 69.2 µM) | > 128 | 16 to 32 (≈ 34.6 to 69.2 µM) | > 128 | 16 to 32 (≈ 34.6 to 69.2 µM) | > 128 | 32 to 64 (≈ 69.2 to 138 µM) | 32 to 64 (≈ 69.2 to 138 µM) |
| CS(=O)(=O)N1CCN(C(=O)NC(C(=O)N[C@H]2Cc3cccc(C(=O)O)c3OB2O)c2ccc(P(=O)(O)O)c(F)c2O)C1=O (stereo partly drawn) [Example 48, (3R)-3-(2-(3-fluoro-2-hydroxy-4-phosphonophenyl)-2-(3-(methylsulfonyl)-2-oxoimidazolidine-1-carboxamido)acetamido)-2-hydroxy-3,4-dihydro-2H-benzo[e][1,2]oxaborinine-8-carboxylic acid] | 10 to 50 | > 128 | 1 to 2 (≈ 1.55 to 3.1 µM) | 10 to 50 | < 1 | < 1 | > 128 | 1 to 2 (≈ 1.55 to 3.1 µM) | > 128 | < 1 | > 128 | 8 to 16 (≈ 12.4 to 24.8 µM) | > 128 |
| CCN1CCN(C(=O)NC(C(=O)N[C@H]2Cc3cccc(C(=O)O)c3OB2O)c2cccc(CP(=O)(O)O)c2)C(=O)C1=O (stereo partly drawn) [Example 22, (3R)-3-(2-(4-ethyl-2,3-dioxopiperazine-1-carboxamido)-2-(3-(phosphonomethyl)phenyl)acetamido)-2-hydroxy-3,4-dihydro-2H-benzo[e][1,2]oxaborinine-8-carboxylic acid] | < 10 | 8 to 16 (≈ 13.3 to 26.6 µM) | 1 to 2 (≈ 1.66 to 3.32 µM) | < 10 | < 1 | < 1 | > 128 | 1 to 2 (≈ 1.66 to 3.32 µM) | > 128 | 1 to 2 (≈ 1.66 to 3.32 µM) | 32 to 64 (≈ 53.1 to 106 µM) | 2 to 4 (≈ 3.32 to 6.64 µM) | 8 to 16 (≈ 13.3 to 26.6 µM) |
| NS(=O)(=O)NC(C(=O)N[C@H]1Cc2cccc(C(=O)O)c2OB1O)c1ccc(P(=O)(O)O)cc1 (stereo partly drawn) [Example 58, (3R)-2-hydroxy-3-(2-(4-phosphonophenyl)-2-(sulfamoylamino)acetamido)-3,4-dihydro-2H-benzo[e][1,2]oxaborinine-8-carboxylic acid] | > 250 | > 128 | 16 to 32 (≈ 32.1 to 64.1 µM) | > 250 | 16 to 32 (≈ 32.1 to 64.1 µM) | 16 to 32 (≈ 32.1 to 64.1 µM) | > 128 | 16 to 32 (≈ 32.1 to 64.1 µM) | > 128 | 16 to 32 (≈ 32.1 to 64.1 µM) | > 128 | > 128 | > 128 |
| O=C1CC[C@H](C(=O)NC(C(=O)N[C@H]2Cc3cccc(C(=O)O)c3OB2O)c2ccc(P(=O)(O)O)cc2)N1 (stereo partly drawn) [Example 53, (3R)-2-hydroxy-3-(2-((R)-5-oxopyrrolidine-2-carboxamido)-2-(4-phosphonophenyl)acetamido)-3,4-dihydro-2H-benzo[e][1,2]oxaborinine-8-carboxylic acid] | 10 to 50 | > 128 | 16 to 32 (≈ 30.1 to 60.2 µM) | 50 to 250 | 1 to 2 (≈ 1.88 to 3.76 µM) | 1 to 2 (≈ 1.88 to 3.76 µM) | > 128 | 1 to 2 (≈ 1.88 to 3.76 µM) | > 128 | 1 to 2 (≈ 1.88 to 3.76 µM) | > 128 | 32 to 64 (≈ 60.2 to 120 µM) | > 128 |
| CS(=O)(=O)N1CCN(C(=O)N[C@@H](C(=O)N[C@H]2Cc3cccc(C(=O)O)c3OB2O)c2ccc(P(=O)(O)O)c(F)c2)C1=O (single isomer, unassigned) [Example 15] | < 10 | 32 to 64 (≈ 50.9 to 102 µM) | < 1 | < 10 | < 1 | < 1 | > 128 | < 1 | > 128 | < 1 | > 128 | 2 to 4 (≈ 3.18 to 6.37 µM) | 8 to 16 (≈ 12.7 to 25.5 µM) |
| CS(=O)(=O)N1CCC[C@H]1C(=O)N[C@H](C(=O)N[C@H]1Cc2cccc(C(=O)O)c2OB1O)c1ccc(P(=O)(O)O)cc1 [Example 43, (R)-2-hydroxy-3-((S)-2-((S)-1-(methylsulfonyl)pyrrolidine-2-carboxamido)-2-(4-phosphonophenyl)acetamido)-3,4-dihydro-2H-benzo[e][1,2]oxaborinine-8-carboxylic acid] | 50 to 250 | > 128 | 4 to 8 (≈ 6.72 to 13.4 µM) | 50 to 250 | 1 to 2 (≈ 1.68 to 3.36 µM) | 1 to 2 (≈ 1.68 to 3.36 µM) | > 128 | 4 to 8 (≈ 6.72 to 13.4 µM) | > 128 | 4 to 8 (≈ 6.72 to 13.4 µM) | > 128 | 32 to 64 (≈ 53.8 to 108 µM) | > 128 |
| O=C(O)c1cccc2c1OB(O)[C@@H](NC(=O)C(NC(=O)[C@H]1CCCN1)c1ccc(P(=O)(O)O)cc1)C2 (stereo partly drawn) [Example 52, (3R)-2-hydroxy-3-(2-(4-phosphonophenyl)-2-((R)-pyrrolidine-2-carboxamido)acetamido)-3,4-dihydro-2H-benzo[e][1,2]oxaborinine-8-carboxylic acid] | 50 to 250 | > 128 | 16 to 32 (≈ 30.9 to 61.9 µM) | > 250 | 16 to 32 (≈ 30.9 to 61.9 µM) | 16 to 32 (≈ 30.9 to 61.9 µM) | > 128 | 16 to 32 (≈ 30.9 to 61.9 µM) | > 128 | 16 to 32 (≈ 30.9 to 61.9 µM) | 32 to 64 (≈ 61.9 to 124 µM) | 32 to 64 (≈ 61.9 to 124 µM) | 32 to 64 (≈ 61.9 to 124 µM) |
